Values joined by “and” are separate entries in the source; they are usually repeats but may differ in a detail not shown here. Equal entries are not always repeated.
Test: LHGFR expressed in E. coli BL21(DE3), response to exogenous L-2-HG (time course and dose-response)
Assay type: cell-based
Conditions: Fig. 5a
Protocol: To characterize the sensitivity and specificity of LHGFR expressed in E. coli BL21(DE3), 90 μL cell suspensions following 8 h carbon starvation were mixed with 10 μL increasing concentrations of L-2-HG or other compounds, and then added into a black 96-well plate (total 100 μL/per well), the fluorescence intensities were determined using an EnSight microplate reader (PerkinElmer, USA) and the following instrument settings: excitation at 430 nm, emission at 485 nm (mTFP) and 528 nm (Venus), time intervals of 5 min, the temperature at 37 °C, and shake at 180 rpm.

O=C(O)CC[C@H](O)C(=O)O [L-2-HG, L-2-Hydroxyglutarate]
Emission ratio (0.1 μM L-2-HG, 0 min): 1.012 and 0.989 and 0.997 | Emission ratio (0.1 μM L-2-HG, 5 min): 1.02 and 0.9981 and 1.004 | Emission ratio (0.1 μM L-2-HG, 10 min): 1.016 and 1.0025 and 1.009 | Emission ratio (0.1 μM L-2-HG, 15 min): 1.023 and 1.007 and 1.026 | Emission ratio (0.1 μM L-2-HG, 20 min): 1.034 and 1.009 and 1.038 | Emission ratio (0.1 μM L-2-HG, 25 min): 1.022 and 1.0081 and 1.026 | Emission ratio (0.1 μM L-2-HG, 30 min): 1.026 and 1.01 and 1.02 | Emission ratio (0.1 μM L-2-HG, 35 min): 1.021 and 1.007 and 1.025 | Emission ratio (0.1 μM L-2-HG, 40 min): 1.033 and 1.012 and 1.025 | Emission ratio (0.1 μM L-2-HG, 45 min): 1.028 and 1.004 and 1.026 | Emission ratio (0.1 μM L-2-HG, 50 min): 1.037 and 1.012 and 1.035 | Emission ratio (0.1 μM L-2-HG, 55 min): 1.031 and 1.006 and 1.033 | Emission ratio (0.1 μM L-2-HG, 60 min): 1.022 (2×) and 1.012 | Emission ratio (0.1 μM L-2-HG, 65 min): 1.024 and 1.014 and 1.029 | Emission ratio (0.1 μM L-2-HG, 70 min): 1.0212 and 1.016 and 1.02 | Emission ratio (0.1 μM L-2-HG, 75 min): 1.025 (2×) and 1.033 | Emission ratio (0.1 μM L-2-HG, 80 min): 1.031 and 1.009 and 1.021 | Emission ratio (0.1 μM L-2-HG, 85 min): 1.0115 and 1.016 and 1.023 | Emission ratio (0.1 μM L-2-HG, 90 min): 1.021 (2×) and 1.032 | Emission ratio (1 μM L-2-HG, 0 min): 0.9972 and 0.975 and 0.9871 | Emission ratio (1 μM L-2-HG, 5 min): 1.009 and 0.9962 and 0.9991 | Emission ratio (1 μM L-2-HG, 10 min): 1.023 and 0.9982 and 1.005 | Emission ratio (1 μM L-2-HG, 15 min): 1.0208 and 0.9996 and 1.009 | Emission ratio (1 μM L-2-HG, 20 min): 1.0328 and 1.012 and 1.019 | Emission ratio (1 μM L-2-HG, 25 min): 1.021 and 1.008 and 1.022 | Emission ratio (1 μM L-2-HG, 30 min): 1.0327 and 1.008 (2×) | Emission ratio (1 μM L-2-HG, 35 min): 1.03 and 0.9986 and 1.019 | Emission ratio (1 μM L-2-HG, 40 min): 1.036 and 1.0055 and 1.012 | Emission ratio (1 μM L-2-HG, 45 min): 1.034 and 0.9995 and 1.022 | Emission ratio (1 μM L-2-HG, 50 min): 1.045 and 1.003 and 1.021 | Emission ratio (1 μM L-2-HG, 55 min): 1.024 and 1.003 and 1.034 | Emission ratio (1 μM L-2-HG, 60 min): 1.027 and 1.003 and 1.025 | Emission ratio (1 μM L-2-HG, 65 min): 1.026 and 0.994 and 1.032 | Emission ratio (1 μM L-2-HG, 70 min): 1.026 and 0.9971 and 1.03 | Emission ratio (1 μM L-2-HG, 75 min): 1.025 and 1.005 and 1.037 | Emission ratio (1 μM L-2-HG, 80 min): 1.033 (2×) and 0.9987 | Emission ratio (1 μM L-2-HG, 85 min): 1.013 and 1.0091 and 1.026 | Emission ratio (1 μM L-2-HG, 90 min): 1.034 and 1.005 and 1.032 | Emission ratio (10 μM L-2-HG, 0 min): 0.9974 and 0.9749 and 0.9795 | Emission ratio (10 μM L-2-HG, 5 min): 1.027 and 0.9941 and 0.9973 | Emission ratio (10 μM L-2-HG, 10 min): 1.031 and 0.9958 and 1.001 | Emission ratio (10 μM L-2-HG, 15 min): 1.0289 and 1.0021 and 1.009 | Emission ratio (10 μM L-2-HG, 20 min): 1.045 and 1 and 1.01 | Emission ratio (10 μM L-2-HG, 25 min): 1.039 and 0.9977 and 1.015 | Emission ratio (10 μM L-2-HG, 30 min): 1.037 and 0.9978 and 1.007 | Emission ratio (10 μM L-2-HG, 35 min): 1.04 and 1.003 and 1.015 | Emission ratio (10 μM L-2-HG, 40 min): 1.03 and 1 and 1.011 | Emission ratio (10 μM L-2-HG, 45 min): 1.029 and 1.001 and 1.0118 | Emission ratio (10 μM L-2-HG, 50 min): 1.038 and 1.001 and 1.016 | Emission ratio (10 μM L-2-HG, 55 min): 1.018 and 0.9882 and 1.017 | Emission ratio (10 μM L-2-HG, 60 min): 1.019 (2×) and 0.997 | Emission ratio (10 μM L-2-HG, 65 min): 1.0139 and 0.9961 and 1.023 | Emission ratio (10 μM L-2-HG, 70 min): 1.0139 and 0.9946 and 1.028 | Emission ratio (10 μM L-2-HG, 75 min): 1.017 and 0.9951 and 1.034 | Emission ratio (10 μM L-2-HG, 80 min): 1.022 and 0.9886 and 1.029 | Emission ratio (10 μM L-2-HG, 85 min): 1.023 and 0.9843 and 1.034 | Emission ratio (10 μM L-2-HG, 90 min): 1.009 and 0.9801 and 1.033 | Emission ratio (20 μM L-2-HG, 0 min): 0.9789 and 0.9659 and 0.9802 | Emission ratio (20 μM L-2-HG, 5 min): 0.9958 and 0.9868 and 0.9915 | Emission ratio (20 μM L-2-HG, 10 min): 1.008 and 0.9945 and 0.999 | Emission ratio (20 μM L-2-HG, 15 min): 1.027 and 1.004 and 1.005 | Emission ratio (20 μM L-2-HG, 20 min): 1.024 and 1.0082 and 1 | Emission ratio (20 μM L-2-HG, 25 min): 1.026 and 1.013 and 1.0078 | Emission ratio (20 μM L-2-HG, 30 min): 1.036 and 1.005 and 1.016 | Emission ratio (20 μM L-2-HG, 35 min): 1.021 and 1.001 and 1.019 | Emission ratio (20 μM L-2-HG, 40 min): 1.043 and 1.002 and 1.018 | Emission ratio (20 μM L-2-HG, 45 min): 1.041 and 1.009 and 1.022 | Emission ratio (20 μM L-2-HG, 50 min): 1.04 and 1.006 and 1.0167 | Emission ratio (20 μM L-2-HG, 55 min): 1.015 and 1.004 and 1.027 | Emission ratio (20 μM L-2-HG, 60 min): 1.0355 and 0.9994 and 1.024 | Emission ratio (20 μM L-2-HG, 65 min): 1.024 and 1.003 and 1.019 | Emission ratio (20 μM L-2-HG, 70 min): 1.023 and 0.9958 and 1.025 | Emission ratio (20 μM L-2-HG, 75 min): 1.0243 and 1.007 and 1.0344 | Emission ratio (20 μM L-2-HG, 80 min): 1.023 and 0.9899 and 1.029 | Emission ratio (20 μM L-2-HG, 85 min): 1.012 and 1.001 and 1.028 | Emission ratio (20 μM L-2-HG, 90 min): 1.022 and 0.9961 and 1.035 | Emission ratio (100 μM L-2-HG, 0 min): 0.9864 and 0.9735 and 0.9711 | Emission ratio (100 μM L-2-HG, 5 min): 1.005 and 0.9924 and 0.9939 | Emission ratio (100 μM L-2-HG, 10 min): 1.009 and 1.008 and 1.012 | Emission ratio (100 μM L-2-HG, 15 min): 1.0245 and 1.016 and 1.019 | Emission ratio (100 μM L-2-HG, 20 min): 1.0318 and 1.022 and 1.0268 | Emission ratio (100 μM L-2-HG, 25 min): 1.0276 and 1.029 and 1.024 | Emission ratio (100 μM L-2-HG, 30 min): 1.034 and 1.025 and 1.028 | Emission ratio (100 μM L-2-HG, 35 min): 1.039 and 1.026 and 1.037 | Emission ratio (100 μM L-2-HG, 40 min): 1.0304 and 1.029 and 1.028

Source: publication PMC8206213, “An L-2-hydroxyglutarate biosensor based on specific transcriptional regulator LhgR” (Nature Communications, 2021)
